Columns and labels:
LRRK2 wild type enzyme = LRRK2 wild type enzyme (Homo sapiens, UniProt Q5S007); assay: LRRK2 biochemical assay (LanthaScreen TR-FRET, LRRKtide substrate); conditions: LRRK2 inhibition; 3 nM LRRK2, 400 nM LRRKtide, 25 μM ATP, 120 min, 23° C.
Protocol: 10 mM compound solution was prepared in DMSO. An 11-point, 3-fold dilution was performed, with highest concentration at 10 μM. A 10 mM compound DMSO solution was added to Labcyte LDV plate and the compound concentration of source plate was 10 mM. The 1 st compound concentration of Inter plate (Labcyte 384 well PP plate) was 4.938×10^−1 mM which was prepared by transferring 1.5 μL of 10 mM compound from source plate to 28.9 μL DMSO. The 2nd compound concentration of Inter plate was 1.829×10^−2 mM which was prepared by transferring 60 nL of 10 mM compound from source plate to 32.7 μL DMSO. The 3rd compound concentration of Inter plate was 6.774×10^−4 mM which was prepared by transferring 2.5 nL of 10 mM compound from source plate to 36.9 μL DMSO. 100 nL of reference compound was dispensed in column 1 for low control wells and 100 nL of DMSO in column 24 for high control wells. Compounds were dispensed to column 2 to 23 of assay plate and backfilled with DMSO to a total volume of 100 nL.
A 2×LRRK2 enzyme solution (final concentration 3 nM) was prepared in assay buffer (Tris-HCl pH8.0: 50 mM, MgCl2: 5 mM, EDTA: 1 mM, Brij-35: 0.01%, 2 mM DTT). A 2× substrate solution was prepared: LRRK2 tide substrate (final concentration 400 nM) and ATP (final concentration 25 μM) in assay buffer. 5 μL 2×LRRK2 enzyme solution was dispensed to each well in assay plate by Multidrop. Assay plate was spun at 1,000 rpm for 1 min and incubated for 15 min at 23° C. 5 μL 2×ATP/LRRKtide solution was dispensed to each well in assay plate by Multidrop. Assay plate was spun at 1,000 rpm for 1 min and incubated for 120 min at 23° C.
A 2× detection solution was prepared: Tb-pERM (pLRRKtide) antibody (final concentration 0.25 nM) and EDTA (final concentration 10 mM) in TR-FRET dilution buffer. 10 μL 2× detection solution was dispensed to each well in assay plate to stop kinase reaction by Multidrop. Assay plate was spun at 1,000 rpm for 1 min and incubate for 30 min at 23° C. Assay plate was then read on Envision configured for LanthaScreen® TR-FRET.

[1] = biological target: T1, phosphorylation at Ser935 on wild type LRRK2 overexpressed in recombinant HEK-293T cells (Homo sapiens, UniProt Q5S007); assay: pS935 LRRK2 Cell Assay (HTRF); format: cell-based; conditions: LRRK2 inhibition; pS935 LRRK2 in transfected HEK293T cells, 2 hours compound incubation
T1 construct: host or cells: HEK293T, transient transfection
T1 sequence (Q5S007 whole entry): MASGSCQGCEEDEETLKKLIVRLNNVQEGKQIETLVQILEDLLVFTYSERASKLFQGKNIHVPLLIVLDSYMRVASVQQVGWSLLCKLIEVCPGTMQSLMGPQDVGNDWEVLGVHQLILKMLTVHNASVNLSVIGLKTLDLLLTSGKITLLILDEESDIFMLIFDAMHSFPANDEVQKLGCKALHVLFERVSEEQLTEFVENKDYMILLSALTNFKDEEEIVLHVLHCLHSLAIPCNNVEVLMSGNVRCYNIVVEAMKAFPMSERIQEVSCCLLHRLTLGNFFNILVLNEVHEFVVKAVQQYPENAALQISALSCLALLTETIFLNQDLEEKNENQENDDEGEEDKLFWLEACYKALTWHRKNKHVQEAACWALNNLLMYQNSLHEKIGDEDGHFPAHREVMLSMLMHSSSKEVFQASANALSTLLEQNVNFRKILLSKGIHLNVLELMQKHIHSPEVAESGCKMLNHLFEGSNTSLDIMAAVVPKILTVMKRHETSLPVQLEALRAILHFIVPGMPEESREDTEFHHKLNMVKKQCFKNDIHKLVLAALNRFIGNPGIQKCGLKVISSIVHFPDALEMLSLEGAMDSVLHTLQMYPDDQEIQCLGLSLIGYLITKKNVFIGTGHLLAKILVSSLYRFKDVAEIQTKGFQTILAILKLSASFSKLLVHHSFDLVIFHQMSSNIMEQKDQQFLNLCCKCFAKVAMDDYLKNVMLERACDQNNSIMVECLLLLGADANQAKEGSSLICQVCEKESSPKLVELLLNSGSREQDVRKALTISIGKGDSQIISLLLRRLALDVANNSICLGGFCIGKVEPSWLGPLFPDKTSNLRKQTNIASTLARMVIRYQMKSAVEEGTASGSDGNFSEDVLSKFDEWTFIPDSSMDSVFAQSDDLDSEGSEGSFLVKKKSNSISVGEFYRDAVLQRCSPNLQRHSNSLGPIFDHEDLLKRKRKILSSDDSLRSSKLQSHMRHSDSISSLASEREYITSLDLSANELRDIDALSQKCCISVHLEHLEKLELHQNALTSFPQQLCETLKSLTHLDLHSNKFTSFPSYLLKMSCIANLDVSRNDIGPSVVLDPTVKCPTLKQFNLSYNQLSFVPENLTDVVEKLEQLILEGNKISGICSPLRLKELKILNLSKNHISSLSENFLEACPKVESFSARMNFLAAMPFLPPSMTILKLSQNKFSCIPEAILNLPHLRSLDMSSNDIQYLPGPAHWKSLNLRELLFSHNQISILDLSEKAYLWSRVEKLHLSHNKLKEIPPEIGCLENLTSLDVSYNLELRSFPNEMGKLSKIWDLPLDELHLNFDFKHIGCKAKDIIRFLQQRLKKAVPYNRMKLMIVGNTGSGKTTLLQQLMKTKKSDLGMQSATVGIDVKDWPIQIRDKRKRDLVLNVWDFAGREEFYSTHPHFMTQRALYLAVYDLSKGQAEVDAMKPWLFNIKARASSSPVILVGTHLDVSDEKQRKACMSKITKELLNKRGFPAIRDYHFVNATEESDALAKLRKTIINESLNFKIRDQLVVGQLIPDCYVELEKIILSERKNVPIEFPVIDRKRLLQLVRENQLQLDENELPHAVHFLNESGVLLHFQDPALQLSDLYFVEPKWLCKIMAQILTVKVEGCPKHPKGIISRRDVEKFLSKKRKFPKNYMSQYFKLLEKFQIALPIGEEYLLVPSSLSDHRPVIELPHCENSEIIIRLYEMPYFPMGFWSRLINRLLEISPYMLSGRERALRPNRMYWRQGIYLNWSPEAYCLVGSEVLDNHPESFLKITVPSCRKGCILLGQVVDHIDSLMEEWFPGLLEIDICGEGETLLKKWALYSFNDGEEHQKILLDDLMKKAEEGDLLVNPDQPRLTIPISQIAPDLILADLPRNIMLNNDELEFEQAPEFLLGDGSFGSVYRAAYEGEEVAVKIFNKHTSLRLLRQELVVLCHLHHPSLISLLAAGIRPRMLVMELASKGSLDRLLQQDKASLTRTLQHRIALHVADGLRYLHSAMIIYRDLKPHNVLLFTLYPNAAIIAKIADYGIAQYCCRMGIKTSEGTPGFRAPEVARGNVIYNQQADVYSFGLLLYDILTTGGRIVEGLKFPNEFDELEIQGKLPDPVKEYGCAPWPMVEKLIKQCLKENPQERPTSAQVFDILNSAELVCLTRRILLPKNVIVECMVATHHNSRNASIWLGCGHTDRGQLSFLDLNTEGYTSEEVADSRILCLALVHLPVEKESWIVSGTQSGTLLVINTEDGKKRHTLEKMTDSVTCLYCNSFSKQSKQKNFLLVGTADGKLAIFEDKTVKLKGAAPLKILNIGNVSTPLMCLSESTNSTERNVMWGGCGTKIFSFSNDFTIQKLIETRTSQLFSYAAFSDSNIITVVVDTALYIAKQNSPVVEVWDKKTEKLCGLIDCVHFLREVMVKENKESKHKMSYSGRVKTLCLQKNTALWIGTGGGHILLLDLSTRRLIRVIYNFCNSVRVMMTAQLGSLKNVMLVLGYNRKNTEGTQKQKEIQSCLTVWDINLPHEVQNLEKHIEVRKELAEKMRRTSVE
Source text: The following protocol describes an in-vitro method for measuring phosphorylation at Ser935 on wild type LRRK2 overexpressed in recombinant HEK-293T cells. The method is based on HTRF technology, which combines Fluorescence Resonance Energy Transfer (FRET) with Time-Resolved measurement (TR). Phospho-LRRK2 (Ser935) is detected in a sandwich assay format using two different specific antibodies, one labelled with Eu^3+-Cryptate (donor) and the second with d2 (acceptor). When the fluorophores are in close proximity, excitation of the donor with a light source (flash lamp) stimulates FRET to the acceptor, which in turn fluoresces at a specific wavelength (665 nm). The fluorescence emission at 615 nm from the donor is also measured to allow ratiometric reduction of data. The specific signal is proportional to phospho-LRRK2 (Ser935).
Plasmid transient transfection: DMEM medium, FBS, DPBS, Trans-IT, OPTI-MEM reagents were allowed to warm to room temperature. HEK293T cells were cultured in DMEM+10% FBS complete medium in T150 flasks till around 80% confluency before transfection. Then cells were washed with 10 mL PBS and detached with 3 mL 0.25% typinsin. 30×10E6 HEK293T cells were seeded in DMEM+10% FBS complete medium to a 15 cm dish.
DNA, TransIT-LT1, OPTI-MEM complex were prepared: […] OPTI-MEM was added to a 15 mL cone tube, then […] plasmid was added to OPTI-MEM and mixed, followed by addition of 60 L TransIT-LT1 to the plasmid OPTI-MEM mixture and mixing. The resulting mixture was incubated for 15 minutes.
The above plasmid, DNA and OPTI-MEM mixture was added dropwise to the 15 cm dish, ensuring the drops were evenly distributed. The culture dish was gently rocked back and forth and from left to right to evenly distribute the complex. The transfected dish was incubated for 24 hours at 37° C., and 5% CO2.
Transfected HEK293T was collected in the 15 cm dish. Media was aspirated from tissue culture dish, and washed by dispensing 10 mL 1×DPBS into 15 cm dish. 1×DPBS was aspirated and 3 mL trypsin was dispensed to 15 cm dish. The dish was incubated with trypsin at room temperature for 3 min until the cells were detached. 10 mL of DMEM+10% FBS medium were added to 15 cm dish and triturated to ensure homogenous cell suspensions.
Homogenous cell suspensions were transferred to a 50 mL tube, and centrifuged for 5 minutes at 1,000 rmp/min. The supernatant was aspirated and resuspended with 20 mL complete medium. 1 mL of cell suspension was transferred for cell counting. The cell suspension was diluted to 2×10E5 cells/ml. 50 L cell suspensions were added to a 384-well plate. The plate was quick spun at 800 rpm for 1 minute, then incubate overnight at 37° C., 5% CO2.
Compound dispensing: compound was diluted (10 mM DMSO stock solution) and added to assay plate (top concentration: 10 μM, 3 fold serial dilution, 9 doses) with duplicates by Tecan liquid handler. The DMSO concentration of each well was normalized to 0.2%. Plates were quick spun at 1,000 rpm for 1 minute. Plates were incubated at 37° C., 5% CO2 for 2 hours.
1× lysis buffer solution supplemented with blocking reagent was prepared (e.g. 1 mL lysis buffer 4×+3 mL water+40 L stock blocking reagent 100×). Antibodies working solution was prepared by diluting 40-fold d2 and Cryptate antibodies with detection buffer (e.g. 1520 L detection buffer+40 L d2-antibody stock solution+[…] Cryptate-antibody stock solution).
After 2 hours incubation, cell plates were taken out from the incubator. Medium was removed by plate washer, then 16 µL of supplemented lysis buffer was added 1× to each well and incubated for 30 minutes at room temperature under shaking (800 rpm/min). 4 µL of antibodies working solution was added to each well, covered with a top seal and incubated overnight in 23° C. incubator.
HTRF signal was read (665 nm and 615 nm) on Wallac 2104 EnVision® multilabel reader. Data were analyzed by XL fit software.

Sequence of LRRK2 wild type enzyme (Q5S007 whole entry): as above

C[C@@H]1C[C@H](n2c(Cc3noc(N4CCC(O)C4)n3)nc3cnc4ccc(C#N)cc4c32)CCO1 (mixture of isomers) [Compound 12, 2-({5-[(3RS)-3-hydroxypyrrolidin-1-yl]-1,2,4-oxadiazol-3-yl}methyl)-1-[(2R,4R)-2-methyloxan-4-yl]-1H-imidazo[4,5-c]quinoline-8-carbonitrile]
IC50 (LRRK2 wild type enzyme): 1.36 nM
IC50 [1]: 811 nM

C[C@@H]1CC(n2c(Cn3nccc3NS(C)(=O)=O)nc3cnc4ccc(C#N)cc4c32)CCO1 (stereo in doubt) [Compound 16, N-(1-{[8-cyano-1-(2-methyloxan-4-yl)-1H-imidazo[4,5-c]quinolin-2-yl]methyl}-1H-pyrazol-5-yl)methanesulfonamide]
IC50 (LRRK2 wild type enzyme): 671 nM

C[C@@H]1C[C@H](n2c(Cc3noc(N4CC(O)C4)n3)nc3cnc4ccc(C#N)cc4c32)CCO1 [Compound 1, 2-{[5-(3-hydroxyazetidin-1-yl)-1,2,4-oxadiazol-3-yl]methyl}-1-[(2R,4R)-2-methyloxan-4-yl]-1H-imidazo[4,5-c]quinoline-8-carbonitrile]
IC50 (LRRK2 wild type enzyme): 0.976 nM
IC50 [1]: 664 nM

C[C@@H]1C[C@H](n2c(Cn3cccc(C(=O)O)c3=O)nc3cnc4ccc(C#N)cc4c32)CCO1 [Compound 2, 1-({8-cyano-1-[(2R,4R)-2-methyloxan-4-yl]-1H-imidazo[4,5-c]quinolin-2-yl}methyl)-2-oxo-1,2-dihydropyridine-3-carboxylic acid]
IC50 (LRRK2 wild type enzyme): 106 nM

C[C@@H]1C[C@H](n2c(Cc3noc(N4CC(O)C4)n3)nc3cnc4ccc(Cl)cc4c32)CCO1 [Compound 3, 1-[3-({8-chloro-1-[(2R,4R)-2-methyloxan-4-yl]-1H-imidazo[4,5-c]quinolin-2-yl}methyl)-1,2,4-oxadiazol-5-yl]azetidin-3-ol]
IC50 (LRRK2 wild type enzyme): 0.798 nM
IC50 [1]: 61.5 nM

C[C@@H]1C[C@H](n2c(Cn3ccc(NS(C)(=O)=O)n3)nc3cnc4ccc(C#N)cc4c32)CCO1 [Compound 4, N-(1-{[8-cyano-1-(2-methyloxan-4-yl)-1H-imidazo[4,5-c]quinolin-2-yl]methyl}-1H-pyrazol-3-yl)methanesulfonamide]
IC50 (LRRK2 wild type enzyme): 0.888 nM
IC50 [1]: 458 nM

C[C@@H]1C[C@H](n2c(Cc3cn(C4CN(S(C)(=O)=O)C4)nn3)nc3cnc4ccc(C#N)cc4c32)CCO1 [Compound 5, 2-{[1-(1-methanesulfonylazetidin-3-yl)-1H-1,2,3-triazol-4-yl]methyl}-1-[(2R,4R)-2-methyloxan-4-yl]-1H-imidazo[4,5-c]quinoline-8-carbonitrile]
IC50 (LRRK2 wild type enzyme): 0.635 nM
IC50 [1]: 324 nM

C[C@@H]1C[C@H](n2c(Cc3ccc(NS(C)(=O)=O)nc3)nc3cnc4ccc(C#N)cc4c32)CCO1 [Compound 6, N-(5-{[8-cyano-1-(2-methyloxan-4-yl)-1H-imidazo[4,5-c]quinolin-2-yl]methyl}pyridin-2-yl)methanesulfonamide]
IC50 (LRRK2 wild type enzyme): 3.94 nM
IC50 [1]: 4380 nM

C[C@@H]1C[C@H](n2c(Cc3n[nH]c(=O)o3)nc3cnc4ccc(C#N)cc4c32)CCO1 [Compound 7, 1-[(2R,4R)-2-methyloxan-4-yl]-2-[(5-oxo-4,5-dihydro-1,3,4-oxadiazol-2-yl)methyl]-1H-imidazo[4,5-c]quinoline-8-carbonitrile]
IC50 (LRRK2 wild type enzyme): 1.49 nM
IC50 [1]: 466 nM

C[C@@H]1C[C@H](n2c(Cc3cnn(C4COC4)c3)nc3cnc4ccc(C#N)cc4c32)CCO1 [Compound 8, 1-[(2R,4R)-2-methyloxan-4-yl]-2-{[1-(oxetan-3-yl)-1H-pyrazol-4-yl]methyl}-1H-imidazo[4,5-c]quinoline-8-carbonitrile]
IC50 (LRRK2 wild type enzyme): 6.47 nM
IC50 [1]: 618 nM

C[C@@H]1C[C@H](n2c(Cc3noc(N4CCN(C)C(=O)C4)n3)nc3cnc4ccc(C#N)cc4c32)CCO1 [Compound 9, 2-{[5-(4-methyl-3-oxopiperazin-1-yl)-1,2,4-oxadiazol-3-yl]methyl}-1-[(2R,4R)-2-methyloxan-4-yl]-1H-imidazo[4,5-c]quinoline-8-carbonitrile]
IC50 (LRRK2 wild type enzyme): 1.69 nM
IC50 [1]: 616 nM

C[C@@H]1C[C@H](n2c(Cc3noc(C4(S(C)(=O)=O)CC4)n3)nc3cnc4ccc(Cl)cc4c32)CCO1 [Compound 10, 3-({8-chloro-1-[(2R,4R)-2-methyloxan-4-yl]-1H-imidazo[4,5-c]quinolin-2-yl}methyl)-5-(1-methanesulfonylcyclopropyl)-1,2,4-oxadiazole]
IC50 (LRRK2 wild type enzyme): 0.299 nM
IC50 [1]: 10.3 nM

C[C@@H]1C[C@H](n2c(Cc3noc(N4CCC(O)CC4)n3)nc3cnc4ccc(C#N)cc4c32)CCO1 [Compound 11, 2-{[5-(4-hydroxypiperidin-1-yl)-1,2,4-oxadiazol-3-yl]methyl}-1-[(2R,4R)-2-methyloxan-4-yl]-1H-imidazo[4,5-c]quinoline-8-carbonitrile]
IC50 (LRRK2 wild type enzyme): 2.26 nM
IC50 [1]: 270 nM

C[C@@H]1C[C@H](n2c(Cc3noc(C4(S(C)(=O)=O)CC4)n3)nc3cnc4ccc(C#N)cc4c32)CCO1 [Compound 13, 2-{[5-(1-methanesulfonylcyclopropyl)-1,2,4-oxadiazol-3-yl]methyl}-1-[(2R,4R)-2-methyloxan-4-yl]-1H-imidazo[4,5-c]quioline-8-carbonitrile]
IC50 (LRRK2 wild type enzyme): 0.449 nM
IC50 [1]: 23.7 nM

C[C@@H]1C[C@H](n2c(Cc3cc(CCS(C)(=O)=O)on3)nc3cnc4ccc(C#N)cc4c32)CCO1 [Compound 20, 2-{[5-(2-methanesulfonylethyl)-1,2-oxazol-3-yl]methyl}-1-[(2R,4R)-2-methyloxan-4-yl]-1H-imidazo[4,5-c]quinoline-8-carbonitrile]
IC50 (LRRK2 wild type enzyme): 0.596 nM

C[C@@H]1C[C@H](n2c(Cc3ccc(S(C)(=O)=O)cn3)nc3cnc4ccc(C#N)cc4c32)CCO1 [Compound 22, 2-[(5-methanesulfonylpyridin-2-yl)methyl]-1-[(2R,4R)-2-methyloxan-4-yl]-1H-imidazo[4,5-c]quinoline-8-carbonitrile]
IC50 (LRRK2 wild type enzyme): 0.579 nM
